Test results reported in US10799501B2, “Combination of an inhibitor of PARP with an inhibitor of GSK-3 or DOT1L” (King's College London, priority 2015, dated 2020).

System: THP1 (MLL-AF9)
Assay: In vitro drug treatment of human leukemic cell line THP1
Assay type: cell-based
Protocol: NB4-LR2 and THP1 cell lines (kindly provided by Dr Arthur Zelent and Professor Mel Greaves respectively) were cultured in RPMI (Invitrogen) supplemented with 10% selected FBS (R10), 2 mM L-Glutamine. Kasumi cell line (kindly provided by Dr Olaf Heidenreich) was cultured in RPMI-Hepes modified (Sigma) supplemented with 20% selected FBS and 2 mM L-[…]). Cell lines were validated by qPCR for their respective oncogenes. NIH3T3 and GP2 cell line was cultured in DMEM (Invitrogen) supplemented with 10% selected FBS and 2 mM L-Glutamine. Human primary AML cells were cultured in IMEM (Invitrogen) supplemented with […], 2 mM L-Glutamine, 10 ng/mL each of human cytokines, IL3, IL6, SCF, FLT3 ligand, and TPO. Cells were kept at 37° C. and 5% CO2. Use of human primary cells was approved by King's College London committee and consents of the patients were obtained. […] Colonies were scored 6-7 days after plating. For other in vitro studies, mouse leukemic cells and primary AML cell lines were subjected to continuously Olaparib (1 μM) or LiCl (8 mM) treatment in liquid culture for whole duration as indicated in the figures or figure legends. For human leukemic cell lines, experiments were performed as described above with 5 μM Olaparib. For each assay 1×10^5 cells were collected, washed in PBS and re-suspended in Annexin V binding solution (25 mM Hepes, 140 mM KCl, 2.5 mM CaCl2 pH 7.2). After centrifugation at 500 g for five minutes the cells were incubated with the Annexin V Binding solution containing 0.25 ug/ml mouse anti Annexin V-FITC antibody (Biolegend 640906) and 1 ug/ml propidium iodide in the dark for 30 minutes at 4° C. Samples were then washed in PBS analysed at the FACS LSRII (BD Biosciences Pharmingen) with FACS Diva. Cells were cytospun onto a glass slide at 400 g for 5 minutes and then fixed for 10 minutes with 2% formaldehyde/0.2% glutaraldehyde (Sigma Aldrich). […] Cells were counted in at least 5 fields for each slide, for a total of over 100 cells. The percentage of senescent cells was calculated by the percentage of the number of blue cell in the field.

O=C(c1cc(Cc2n[nH]c(=O)c3ccccc23)ccc1F)N1CCN(C(=O)C2CC2)CC1 [Olaparib, 4-[(3-[(4-cyclopropylcarbonyl)piperazin-4-yl]carbonyl)-4-fluorophenyl]methyl(2H)-phthalazin-1-one]
growth (relative proliferation) and differentiation (counted on day 5 by trypan blue exclusion): ineffective | colony forming ability (methylcellulose 7 days, 5 μM Olaparib): did not affect
